Calls of active or inactive are those of the source. No cut-off for these calls is given here. Non-standard residues stand in square brackets, D forms with d. Residues, ends and D or L forms follow the SMILES beside them. Bip = N[C@@H](Cc1ccc(-c2ccccc2)cc1)C(=O)O; pY = N[C@@H](Cc1ccc(OP(=O)(O)O)cc1)C(=O)O
Columns and labels:
Staphylococcus aureus [1] = experiment: Antibacterial activity against Staphylococcus aureus ATCC 25923 assessed as fold increase in MIC preincubated with serum for 6 hrs followed by 15 mins inactivation prior to bacteria addition and measured after 18 to 24 hrs; format: functional; settings: time 18-24 hrs
Escherichia coli [2] = experiment: Antibacterial activity against Escherichia coli ATCC 25922 assessed as fold increase in MIC preincubated with serum for 6 hrs followed by 15 mins inactivation prior to bacteria addition and measured after 18 to 24 hrs; format: functional; settings: time 18-24 hrs
Staphylococcus aureus [3] = experiment: Bactericidal activity against Staphylococcus aureus ATCC 25923 at 2 times MIC measured upto 1440 mins by time kill assay; format: functional, organism-based
[4] = Toxicity in ip dosed BALB/c mouse assessed as hemorrhage in lung at LD50 dose by H and E staining based assay; format: organism-based; settings: in vivo
[5] = Toxicity in ip dosed BALB/c mouse assessed as inflammatory cell infiltration in lung at LD50 dose by H and E staining based assay; format: organism-based; settings: in vivo
Staphylococcus aureus [6] = experiment: Antibacterial activity against Staphylococcus aureus ATCC 25923 infected in BALB/c mouse systemic infection model assessed as reduction in bacterial load in liver at 20 mg/kg, ip pre-infected for 2 hrs followed by compound addition and measured after 8 hrs postinfection; format: functional, organism-based; settings: time 6.0 hrs
Staphylococcus aureus [7] = experiment: Antibacterial activity against Staphylococcus aureus ATCC 25923 infected in BALB/c mouse systemic infection model assessed as reduction in bacterial load in spleen at 20 mg/kg, ip pre-infected for 2 hrs followed by compound addition and measured after 8 hrs postinfection; format: functional, organism-based; settings: time 6.0 hrs
Staphylococcus aureus [8] = experiment: Antibacterial activity against Staphylococcus aureus ATCC 25923 infected in BALB/c mouse systemic infection model assessed as reduction in inflammatory response in lung tissue at 20 mg/kg, ip pre-infected for 2 hrs followed by compound addition and measured after 8 hrs postinfection; format: functional, organism-based; settings: time 6.0 hrs
Klebsiella pneumoniae [9] = experiment: Antibacterial activity against Klebsiella pneumoniae ATCC 700603 infected in BALB/c mouse lung infection model assessed as increased healing at 5 mg/kg, ip administered twice daily for 3 days and measured for 7 days; format: functional, organism-based; settings: time 10.0 day
Staphylococcus aureus [10] = experiment: Antibacterial activity against Staphylococcus aureus ATCC 25923 preincubated with serum for 6 hrs followed by 15 mins inactivation prior to bacteria addition and measured after 18 to 24 hrs; format: functional, organism-based; settings: time 18-24 hrs
Escherichia coli [11] = experiment: Antibacterial activity against Escherichia coli ATCC 25922 preincubated with serum for 6 hrs followed by 15 mins inactivation prior to bacteria addition and measured after 18 to 24 hrs; format: functional, organism-based; settings: time 18-24 hrs
Staphylococcus aureus [12] = experiment: Antibacterial activity against Staphylococcus aureus ATCC 25923 assessed as fold increase in MIC in presence of Na+; format: functional
Staphylococcus aureus [13] = experiment: Antibacterial activity against Staphylococcus aureus ATCC 25923 in presence of FeCl3; format: functional, organism-based
Staphylococcus aureus [14] = experiment: Antibacterial activity against Staphylococcus aureus ATCC 25923 in presence of KCl; format: functional, organism-based
Staphylococcus aureus [15] = experiment: Antibacterial activity against Staphylococcus aureus ATCC 25923 in presence of MgCl2; format: functional, organism-based
Escherichia coli [16] = experiment: Antibacterial activity against Escherichia coli ATCC 25922 in presence of […]; format: functional, organism-based
Escherichia coli [17] = experiment: Antibacterial activity against Escherichia coli ATCC 25922 in presence of FeCl3; format: functional, organism-based
Staphylococcus aureus [18] = experiment: Bactericidal activity against Staphylococcus aureus ATCC 25923 at 2 times MIC within 120 mins by time kill assay; format: functional, organism-based
[19] = Toxicity in BALB/c mouse assessed as mortality at 220 to 350 mg/kg, ip measured after 14 days; format: organism-based; settings: in vivo, 336 h, dose 220-350 mg/kg, time 14 day
[20] = Toxicity in ip dosed BALB/c mouse assessed as effect on spleen at LD50 dose by H and E staining based assay; format: organism-based; settings: in vivo
[21] = Toxicity in ip dosed BALB/c mouse assessed as liver edema at LD50 dose by H and E staining based assay; format: organism-based; settings: in vivo
[22] = Toxicity in ip dosed BALB/c mouse assessed as liver bleeding at LD50 dose by H and E staining based assay; format: organism-based; settings: in vivo
Staphylococcus aureus [23] = experiment: Antibacterial activity against Staphylococcus aureus ATCC 25923 infected in BALB/c mouse systemic infection model assessed as reduction in bacterial load in liver at 21.21 mg/kg, ip pre-infected for 2 hrs followed by compound addition and measured after 8 hrs postinfection; format: functional, organism-based; settings: time 6.0 hrs
Staphylococcus aureus [24] = experiment: Antibacterial activity against Staphylococcus aureus ATCC 25923 infected in BALB/c mouse systemic infection model assessed as reduction in bacterial load in kidney at 21.21 mg/kg, ip pre-infected for 2 hrs followed by compound addition and measured after 8 hrs postinfection; format: functional, organism-based; settings: time 6.0 hrs
Klebsiella pneumoniae [25] = experiment: Antibacterial activity against Klebsiella pneumoniae ATCC 700603 infected in BALB/c mouse lung infection model assessed as removal of bacterial load at 5.31 mg/kg, ip administered twice daily for 3 days and measured after 6 days; format: functional; settings: time 9 day
Klebsiella pneumoniae [26] = experiment: Antibacterial activity against Klebsiella pneumoniae ATCC 700603 infected in BALB/c mouse lung infection model assessed as improved alveolar aggregation at 5.31 mg/kg, ip administered twice daily for 3 days and measured after 7 days; format: functional, organism-based; settings: time 10.0 day

## CC(C)C[C@H](NC(=O)[C@H](CC(C)C)NC(=O)[C@H](Cc1ccc(O)cc1)NC(=O)[C@H](CCCCN)NC(=O)[C@H](CC(C)C)NC(=O)[C@H](CCCNC(=N)N)NC(=O)[C@H](CCCCN)NC(=O)[C@H](Cc1ccc(-c2ccccc2)cc1)NC(=O)[C@H](CC(C)C)NC(=O)CN)C(N)=O (H-GL[Bip]KRLKYLL-NH2)
Staphylococcus aureus [1]
  fold change (FC): 2
Escherichia coli [2]
  fold change (FC): 2
Staphylococcus aureus [3]
  Activity: Active
[4]
  Activity: Toxic
[5]
  Activity: Toxic
Staphylococcus aureus [6]
  Activity: Active
Staphylococcus aureus [7]
  Activity: Active
Staphylococcus aureus [8]
  Activity: Active
Klebsiella pneumoniae [9]
  Activity: Active

## CC(C)C[C@H](NC(=O)[C@H](CC(C)C)NC(=O)[C@H](Cc1ccc(OP(=O)(O)O)cc1)NC(=O)[C@H](CCCCN)NC(=O)[C@H](CC(C)C)NC(=O)[C@H](CCCNC(=N)N)NC(=O)[C@H](CCCCN)NC(=O)[C@H](Cc1ccc(-c2ccccc2)cc1)NC(=O)[C@H](CC(C)C)NC(=O)CN)C(N)=O (H-GL[Bip]KRLK[pY]LL-NH2)
Staphylococcus aureus [10]
  Activity: Active; Antibacterial Activity Remained Unaffected
Escherichia coli [11]
  Activity: Active; Antibacterial Activity Remained Unaffected
Staphylococcus aureus [12]
  Activity: Active; Compound Showed Excellent Tolerance Towards Salt Environment
Staphylococcus aureus [13]
  Activity: Active; Compound Showed Excellent Tolerance Towards Salt Environment
Staphylococcus aureus [14]
  Activity: Active; Compound Showed Excellent Tolerance Towards Salt Environment
Staphylococcus aureus [15]
  Activity: Active; Compound Showed Excellent Tolerance Towards Salt Environment
Escherichia coli [16]
  Activity: Active; Compound Showed Excellent Tolerance Towards Salt Environment
Escherichia coli [17]
  Activity: Active; Compound Showed Excellent Tolerance Towards Salt Environment
Staphylococcus aureus [18]
  Activity: Active
[19]
  Activity: Toxic
[20]
  Activity: Toxic
[21]
  Activity: Toxic
[22]
  Activity: Toxic
Staphylococcus aureus [23]
  Activity: Active
Staphylococcus aureus [24]
  Activity: Active
Klebsiella pneumoniae [25]
  Activity: 100%
Klebsiella pneumoniae [26]
  Activity: Active

Reference: ChEMBL document CHEMBL6092167, “Phosphorylation as an Effective Tool to Improve Stability and Reduce Toxicity of Antimicrobial Peptides” (J Med Chem, 2024)
